Measurements reported in PubChem BioAssay (NCI).
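In this assay, cells in 96-well plates receive the compound at five concentrations for 48 hours. Endpoints are linearly interpolated between the surrounding concentrations. Abbreviation: GI50, concentration required for 50% inhibition of growth. TGI: concentration producing complete growth inhibition.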

What was measured:
Assay in all cases: NCI tumour cell line growth inhibition, 48 h
OVCAR-3 ovarian = system: OVCAR-3 ovarian
HL-60(TB) leukemia = system: HL-60(TB) leukemia
SF-539 CNS = system: SF-539 CNS
SK-MEL-2 melanoma = system: SK-MEL-2 melanoma
A498 renal = system: A498 renal
HCT-116 colon = system: HCT-116 colon
HT29 colon = system: HT29 colon
NCI/ADR-RES ovarian = system: NCI/ADR-RES ovarian
UACC-257 melanoma = system: UACC-257 melanoma
SR leukemia = system: SR leukemia
MOLT-4 leukemia = system: MOLT-4 leukemia
K-562 leukemia = system: K-562 leukemia
HCT-15 colon = system: HCT-15 colon
SN12C renal = system: SN12C renal
DU-145 prostate = system: DU-145 prostate
BT-549 breast = system: BT-549 breast
UACC-62 melanoma = system: UACC-62 melanoma
M14 melanoma = system: M14 melanoma
NCI-H522 lung = system: NCI-H522 lung
MCF7 breast = system: MCF7 breast
T-47D breast = system: T-47D breast
MALME-3M melanoma = system: MALME-3M melanoma
CAKI-1 renal = system: CAKI-1 renal
IGROV1 ovarian = system: IGROV1 ovarian
NCI-H460 lung = system: NCI-H460 lung
HCC-2998 colon = system: HCC-2998 colon
MDA-MB-231 breast = system: MDA-MB-231 breast
MDA-MB-435 = system: MDA-MB-435
SK-OV-3 ovarian = system: SK-OV-3 ovarian
KM12 colon = system: KM12 colon
U251 CNS = system: U251 CNS
SK-MEL-28 melanoma = system: SK-MEL-28 melanoma
HOP-62 NSCLC = system: HOP-62 NSCLC
SNB-19 CNS = system: SNB-19 CNS
OVCAR-5 ovarian = system: OVCAR-5 ovarian
RPMI-8226 leukemia = system: RPMI-8226 leukemia
SF-268 CNS = system: SF-268 CNS
SNB-75 CNS = system: SNB-75 CNS
ACHN renal = system: ACHN renal
TK-10 renal = system: TK-10 renal
PC-3 prostate = system: PC-3 prostate
NCI-H23 lung = system: NCI-H23 lung
COLO 205 colon = system: COLO 205 colon
LOX IMVI melanoma = system: LOX IMVI melanoma
SK-MEL-5 melanoma = system: SK-MEL-5 melanoma
HOP-92 NSCLC = system: HOP-92 NSCLC
CCRF-CEM leukemia = system: CCRF-CEM leukemia
OVCAR-4 ovarian = system: OVCAR-4 ovarian
SW-620 colon = system: SW-620 colon
OVCAR-8 ovarian = system: OVCAR-8 ovarian
RXF 393 renal = system: RXF 393 renal
EKVX NSCLC = system: EKVX NSCLC
UO-31 renal = system: UO-31 renal
SF-295 CNS = system: SF-295 CNS
HS 578T breast = system: HS 578T breast
A549 NSCLC = system: A549 NSCLC
NCI-H226 lung = system: NCI-H226 lung

Work on `O=C1/C(=C/c2ccccc2[N+](=O)[O-])Oc2ccc(O)cc21` yielded a GI50 (OVCAR-3 ovarian) of 1.9 µM, a TGI (OVCAR-3 ovarian) of 3.88 µM and a GI50 (HL-60(TB) leukemia) of 2.99 µM. For the same compound, the TGI (HL-60(TB) leukemia) was 9.91 µM, the GI50 (SF-539 CNS) was 2.16 µM and the TGI (SF-539 CNS) was 5.61 µM. For the same compound, the GI50 (SK-MEL-2 melanoma) was 3.23 µM, the TGI (SK-MEL-2 melanoma) was 15.1 µM and the GI50 (A498 renal) was 2 µM. It also gave a TGI (A498 renal) of 16.9 µM, a GI50 (HCT-116 colon) of 1.75 µM and a TGI (HCT-116 colon) of 4.17 µM. For the same compound, the GI50 (HT29 colon) was 2.83 µM, the TGI (HT29 colon) was 11.3 µM and the GI50 (NCI/ADR-RES ovarian) was 2.47 µM. It also gave a TGI (NCI/ADR-RES ovarian) of 7.36 µM, a GI50 (UACC-257 melanoma) of 4.33 µM and a TGI (UACC-257 melanoma) of 38.3 µM. It also gave a GI50 (SR leukemia) of 2.69 µM, a TGI (SR leukemia) of over 100 µM and a GI50 (MOLT-4 leukemia) of 3.29 µM. The TGI (MOLT-4 leukemia) was over 100 µM, the GI50 (K-562 leukemia) was 2.84 µM and the TGI (K-562 leukemia) was over 100 µM. The GI50 (HCT-15 colon) was 1.85 µM, the TGI (HCT-15 colon) was 5.47 µM and the GI50 (SN12C renal) was 2.52 µM. It also gave a TGI (SN12C renal) of 7.68 µM, a GI50 (DU-145 prostate) of 2.26 µM and a TGI (DU-145 prostate) of 5.38 µM. The GI50 (BT-549 breast) was 3.16 µM, the TGI (BT-549 breast) was 12.5 µM and the GI50 (UACC-62 melanoma) was 2.26 µM. It also gave a TGI (UACC-62 melanoma) of 6.2 µM, a GI50 (M14 melanoma) of 2.02 µM and a TGI (M14 melanoma) of 4.99 µM. The GI50 (NCI-H522 lung) was 2.08 µM, the TGI (NCI-H522 lung) was 4.83 µM and the GI50 (MCF7 breast) was 1.73 µM. The TGI (MCF7 breast) was 5.52 µM, the GI50 (T-47D breast) was 2.84 µM and the TGI (T-47D breast) was 19.4 µM. For the same compound, the GI50 (MALME-3M melanoma) was 2.08 µM, the TGI (MALME-3M melanoma) was 5.85 µM and the GI50 (CAKI-1 renal) was 1.62 µM. For the same compound, the TGI (CAKI-1 renal) was 3.83 µM, the GI50 (IGROV1 ovarian) was 1.62 µM and the TGI (IGROV1 ovarian) was 6.18 µM. The GI50 (NCI-H460 lung) was 3.09 µM, the TGI (NCI-H460 lung) was 10.1 µM and the GI50 (HCC-2998 colon) was 2.74 µM. It also gave a TGI (HCC-2998 colon) of 7.94 µM, a GI50 (MDA-MB-231 breast) of 2.6 µM and a TGI (MDA-MB-231 breast) of 9.46 µM. For the same compound, the GI50 (MDA-MB-435) was 2.66 µM, the TGI (MDA-MB-435) was 7.52 µM and the GI50 (SK-OV-3 ovarian) was 15.3 µM. It also gave a TGI (SK-OV-3 ovarian) of 62.1 µM, a GI50 (KM12 colon) of 4.38 µM and a TGI (KM12 colon) of 16.4 µM. For the same compound, the GI50 (U251 CNS) was 2.77 µM, the TGI (U251 CNS) was 11.1 µM and the GI50 (SK-MEL-28 melanoma) was 2.37 µM. It also gave a TGI (SK-MEL-28 melanoma) of 6.08 µM, a GI50 (HOP-62 NSCLC) of 7 µM and a TGI (HOP-62 NSCLC) of 38.9 µM. It also gave a GI50 (SNB-19 CNS) of 5.24 µM, a TGI (SNB-19 CNS) of 19 µM and a GI50 (OVCAR-5 ovarian) of 2.21 µM. The TGI (OVCAR-5 ovarian) was 5.72 µM, the GI50 (RPMI-8226 leukemia) was 2.4 µM and the TGI (RPMI-8226 leukemia) was 7.56 µM. The GI50 (SF-268 CNS) was 6.32 µM, the TGI (SF-268 CNS) was 35.9 µM and the GI50 (SNB-75 CNS) was 1.44 µM. The TGI (SNB-75 CNS) was 42.4 µM, the GI50 (ACHN renal) was 2.42 µM and the TGI (ACHN renal) was 8.98 µM. The GI50 (TK-10 renal) was 3.2 µM, the TGI (TK-10 renal) was 7.7 µM and the GI50 (PC-3 prostate) was 3.08 µM. It also gave a TGI (PC-3 prostate) of 14.2 µM, a GI50 (NCI-H23 lung) of 2.1 µM and a TGI (NCI-H23 lung) of 5.17 µM. The GI50 (COLO 205 colon) was 2.19 µM, the TGI (COLO 205 colon) was 5.88 µM and the GI50 (LOX IMVI melanoma) was 1.61 µM. For the same compound, the TGI (LOX IMVI melanoma) was 3.36 µM, the GI50 (SK-MEL-5 melanoma) was 8.89 µM and the TGI (SK-MEL-5 melanoma) was 22 µM. For the same compound, the GI50 (HOP-92 NSCLC) was 2.24 µM, the TGI (HOP-92 NSCLC) was 9.33 µM and the GI50 (CCRF-CEM leukemia) was 2.81 µM. The TGI (CCRF-CEM leukemia) was over 100 µM, the GI50 (OVCAR-4 ovarian) was 2.58 µM and the TGI (OVCAR-4 ovarian) was 9.58 µM. The GI50 (SW-620 colon) was 1.66 µM, the TGI (SW-620 colon) was 4.12 µM and the GI50 (OVCAR-8 ovarian) was 2.86 µM. For the same compound, the TGI (OVCAR-8 ovarian) was over 100 µM, the GI50 (RXF 393 renal) was 1.8 µM and the TGI (RXF 393 renal) was 3.61 µM. It also gave a GI50 (EKVX NSCLC) of 3.77 µM, a TGI (EKVX NSCLC) of 14.8 µM and a GI50 (UO-31 renal) of 1.95 µM. It also gave a TGI (UO-31 renal) of 6.86 µM, a GI50 (SF-295 CNS) of 4.11 µM and a TGI (SF-295 CNS) of 15.4 µM. The GI50 (HS 578T breast) was 1.9 µM, the TGI (HS 578T breast) was 6.35 µM and the GI50 (A549 NSCLC) was 4.83 µM. It also gave a TGI (A549 NSCLC) of 26 µM, a GI50 (NCI-H226 lung) of 1.73 µM and a TGI (NCI-H226 lung) of 4.77 µM.
